Source: EP0729465B1, “PYRONE DERIVATIVES AS PROTEASE INHIBITORS AND ANTIVIRAL AGENTS” (PARKE, DAVIS & COMPANY, priority 1993, dated 1995)
Read-outs that look alike come from different tables or passages of the source.

How the values were obtained:
HIV-I Protease = biological target: T1, HIV-I Protease (Human immunodeficiency virus type 1 group M subtype B, UniProt P04585); test: HIV protease inhibition (hydrolysis of undecapeptide substrate, HPLC readout); assay type: biochemical; conditions: read-out: 50% Inhibition Concentration (Averaged)
T1 construct: HIV-I Protease: The enzyme is obtained from Bachem Bioscience Inc; purchased Bachem Bioscience Inc
Procedure: • DTT Buffer: 1.0 mM dithiothreitol (DTT) was prepared fresh daily in 0.1% polyethylene glycol (mw 8000) 80 mM NaOAc, 160 mM NaCl, 1.0 mM EDTA, and brought to pH 4.7 with HCl. • HIV-I Protease: The enzyme is obtained from Bachem Bioscience Inc. The undiluted enzyme is thawed from -80 °C and diluted 50-fold with DTT buffer. The solution is always kept at 0 °C on ice water and used in the experiment within 20 minutes after thawing. • Enzyme Substrate: Substrate III from Bachem Bioscience Inc. is the undecapeptide H-His-Lys-Ala-Arg-Val-Leu-p-Nitrophenylalanine-Glu-Ala-Norleucine-ser-NH2 (> 97 % purity). A 200. µM stock solution in DTT buffer is prepared and stored on ice. Substrate solution is prepared fresh daily. • Test Compound: 10 mM inhibitor (I) in dimethyl sulfoxide (DMSO) is diluted to 200 µM with DTT buffer. From the 200 µM stock solution is made a 10 µM stock solution with 2% DMSO in DTT buffer. The two inhibitor solutions are used to make final [I] = 100, 50, 20, 10, 5, 2, 1, 0.5 and 0 µM with 2% DMSO in DTT buffer in each reaction well (total inhibitor volume of 50 µl).
To each reaction well is added 20 µl of substrate (final concentration of 40 µM), 50 µl of inhibitor (at a concentration such that final dilution will produce the test concentration) and 20 µl of DTT buffer. The reaction plate (96 wells) is incubated at 37 °C for at least 5 minutes.
10 µl of the diluted protease is added to the reaction well while the reaction plate is shaking. Once shaken for 10 seconds, the plate is returned to the heating block at 37 °C. (Final reaction volume = 100 µl.)
The reaction is incubated for 5 minutes at 37 °C. The reaction is stopped by placing the reaction plate on the shaker and adding 20 µl of 10% trifluoroacetic acid (TFA) and shaking for 10 seconds. The amount of proteolysis is then determined by separation of noncleaved substrate and two cleaved products with reverse-phase HPLC, while measuring absorbance at 220 nm to determine the relative peak areas of the three components. The relative peak areas are used to calculate % conversion to product as a function of inhibitor concentration. The data is plotted as % Control (the ratio of % conversion in the presence and absence of inhibitor x 100) versus inhibitor concentration and fit with the equation Y= 100/1+(X/IC50)^A, where IC50 is the inhibitor concentration at 50% inhibition and A is the slope of the inhibition curve.

HIV-1iiib = test: Anti-HIV-1 activity, acute infection of H9 cells; assay type: cell-based; conditions: Human immunodeficiency virus 1; H9 cell line infected with HIV-1iiib; reverse transcriptase assay at 4 and 7 days post infection; read-out: Concentration for 50% Protection
Procedure: Using the general methods of Pauwels et al., (J. Virol. Methods, 16, 171-185, 1987) and Mann et al. (AIDS Research and Human Retroviruses, 253-255, 1989) anti-viral assays of acute HIV-1 infection were performed in the H9 cell line. Cultures were batch infected in 1 ml of RPM1 1640 media/10% fetal calf serum containing 10^7 cells and 10^5 infectious doses of HIV-1iiib for an effective multiplicity of infection of 0.01. After 2 hours of viral absorption, cells were washed once and plated in 96-well microtiter plates at a density of 10^4 cells per well. Test compounds were added to produce the desired concentration of drug and 0.2% DMSO in a final volume of 200 µl. Uninfected parallel cultures were maintained for XTT cytotoxicity assay at 7 days post infection. Cultures were tested for viral replication by reverse transcriptase assay at 4 and 7 days post infection.

[1] = 40 µM substrate, pH 4.7, 37 °C, 5 minutes

IC50 (HIV-I Protease; [1]) [nM] | IC50 (HIV-I Protease) [nM] | EC50 (HIV-1iiib) [nM] | Structure (SMILES)
1700 |  |  | O=c1oc(-c2ccccc2)cc(O)c1SCCOc1ccccc1 [Example 20, 4-Hydroxy-3-[(2-phenoxyethyl)thio]-6-phenyl-2H-pyran-2-one]
1700 |  |  | O=c1oc(-c2ccccc2)cc(O)c1SCc1ccccc1 [Example 8]
 | 480 | 15000 | O=c1oc(-c2ccc3c(c2)OCCO3)cc(O)c1SCc1ccccc1 [Example 107, 6-(2,3-Dihydro-1,4-benzodioxin-6-yl)-4-hydroxy-3-[(phenylmethyl)thio]-2H-pyran-2-one]
68 |  | 650 | CC(C)c1ccccc1Sc1c(O)cc(-c2ccc(OCc3cccnc3)cc2)oc1=O [Example 157, 4-Hydroxy-3-[(2-isopropylphenyl)thio]-6-[4-(pyridin-3-ylmethoxy)phenyl]-2H-pyran-2-one]
690 |  |  | O=c1oc(-c2ccc(O)cc2)cc(O)c1SCc1ccccc1 [Example 15, 4-Hydroxy-6-(4-hydroxyphenyl)-3-[(phenylmethyl)thio]-2H-pyran-2-one]
 | 55 |  | O=c1oc(-c2ccccc2)cc(O)c1C(CC1CC1)SC1CCCC1 (racemic) [Example 149, 3-[1-[Cyclopentylthio]-2-cyclopropylethyl]-4-hydroxy-6-phenyl-2H-pyran-2-one]
470 |  |  | O=c1oc(-c2cccc(Cl)c2)cc(O)c1SCc1ccccc1 [Example 1, 6-(3-Chlorophenyl)-4-hydroxy-3-[(phenylmethyl)thio]-2H-pyran-2-one]
1200 |  |  | O=c1oc(-c2cccc(O)c2)cc(O)c1SCc1ccccc1 [Example 23, 4-Hydroxy-6-(3-hydroxyphenyl)-3-[(phenylmethyl)thio]-2H-pyran-2-one]
410 |  | 15000 | CC(C)CC(Sc1ccccc1)c1c(O)cc(-c2ccccc2)oc1=O (racemic) [Example 73, 4-Hydroxy-3-[3-methyl-1-(phenylthio)butyl]-6-phenyl-2H-pyran-2-one]
140 |  |  | O=C(O)COc1ccc(-c2cc(O)c(SCCc3ccccc3)c(=O)o2)cc1 [Example 63, 4-[4-Hydroxy-2-oxo-3-[(2-phenylethyl)thio]-2H-pyran-6-yl]phenoxyacetic acid]
1900 |  |  | O=c1oc(-c2ccccc2)cc(O)c1SC/C=C/c1ccccc1 [Example 25, 4-Hydroxy-6-phenyl-3-[3-(phenyl-2-propenyl)thio]-2H-pyran-2-one, (E)-]
900 |  |  | COc1cccc(-c2cc(O)c(SCc3ccccc3)c(=O)o2)c1 [Example 4, 4-Hydroxy-6-(3-methoxyphenyl)-3-[(phenylmethyl)thio]-2H-pyran-2-one]
240 |  |  | Cc1cc(-c2cc(O)c(SCc3ccccc3)c(=O)o2)cc(C)c1O [Example 99, 4-Hydroxy-6-(4-hydroxy-3,5-dimethylphenyl)-3-[(phenylmethyl)thio]-2H-pyran-2-one]
200 |  |  | CC(C)CC(SC1CCCCC1)c1c(O)cc(-c2ccc3c(c2)OCCO3)oc1=O (racemic) [Example 115, 3-[1-(Cyclohexylthio)-3-methylbutyl]-6-(2,3-dihydro-1,4-benzodioxin-6-yl)4-hydroxy-2H-pyran-2-one]
 |  | 31000 | Cc1cc(C)cc(-c2cc(O)c(Sc3ccccc3C(C)C)c(=O)o2)c1 [Example 154, 6-(3,5-Dimethylphenyl)-4-hydroxy-3-[(2-isopropylphenyl)-thio]-2H-pyran-2-one]
330 |  | 17000 | O=c1oc(-c2ccc(OCc3ccccc3)cc2)cc(O)c1SCCc1ccccc1 [Example 26, 4-Hydroxy-3-[(2-phenylethyl)thio]-6-[4-(phenylmethoxy)phenyl] 2-2H-pyran-2-one]
450 |  |  | COc1ccccc1COc1ccc(-c2cc(O)c(SCCc3ccccc3)c(=O)o2)cc1 [Example 54, 4-Hydroxy-6-[4-[(2-methoxyphenyl)methoxy]phenyl]-3-[(2-phenylethyl)thio]-2H-pyran-2-one]

IC50 (HIV-I Protease; [1]) [nM] | IC50 (HIV-I Protease) [nM] | EC50 (HIV-1iiib) [nM] | Structure (SMILES)
750 |  |  | O=c1oc(-c2cccc(OCc3ccccc3)c2)cc(O)c1SCCc1ccccc1 [Example 39, 4-Hydroxy-3-[(2-phenylethyl)thio]-6-[3-(phenylmethoxy)phenyl]-2H-pyran-2-one]
70 |  |  | CC(C)CC(SC1CCCC1)c1c(O)cc(-c2ccccc2)oc1=O (racemic) [Example 96, 3-[1-(Cyclopentylthio)-3-methylbutyl]-4-hydroxy-6-phenyl-2H-pyran-2-one]
630 |  |  | Cc1cc(C)cc(-c2cc(O)c(Sc3ccccc3)c(=O)o2)c1 [Example 148, 6-(3,5-Dimethylphenyl)-4-hydroxy-3-(phenylthio)-2H-pyran-2-one]
610 |  |  | CCOC(=O)COc1ccc(-c2cc(O)c(SCCc3ccccc3)c(=O)o2)cc1 [Example 60, 4-[4-Hydroxy-2-oxo-3-[(2-phenylethyl)thio]-2H-pyran-6-yl]phenoxy acetic acid ethyl eater]
410 |  |  | O=c1oc(-c2cccc(-c3ccccc3)c2)cc(O)c1Sc1ccc2ccccc2c1 [Example 168, 6-(1,1'-Biphenyl-3-yl)-4-hydroxy-3-[(naphthalen-2-yl)thio]-2H-pyran-2-one]
1000 |  |  | O=c1oc(-c2ccc(Cl)c(Cl)c2)cc(O)c1SCc1ccccc1 [Example 3, 6-(3,4-Dichlorophenyl)-4-hydroxy-3-[(phenylmethyl)thio]-2H-pyran-2-one]
860 |  |  | Cc1cccc(-c2cc(O)c(SCc3ccccc3)c(=O)o2)c1 [Example 42, 4-Hydroxy-6-(3-methylphenyl)-3-[(phenylmethyl)thio]-2H-pyran-2-one]
1970 |  |  | O=c1oc(-c2cccc(OCCc3ccccc3)c2)cc(O)c1SCCc1ccccc1 [Example 30, 4-Hydroxy-6-[3-(2-phenylethoxy)phenyl]-3-[(2-phenyl-ethyl)thio]-2H-pyran-2-one]
600 |  |  | O=c1oc(-c2ccc3c(c2)OCO3)cc(O)c1SCc1ccccc1 [Example 50, 6-(1,3-Benzodioxol-5-yl)-4-hydroxy-3-[(phenylmethyl)thio]-2H-pyran-2-one]
1900 |  |  | O=c1oc(-c2ccc(Oc3ccccc3)cc2)cc(O)c1SCCc1ccccc1 [Example 57, 4-Hydroxy-6-(4-phenoxyphenyl)-3-[(2-phenylethyl)thio]-2H-pyran-2-one]
770 |  |  | O=c1oc(-c2ccc(OCc3ccccn3)cc2)cc(O)c1SCCc1ccccc1 [Example 59, 4-Hydroxy-3-[(2-phenylethyl)thio]-6-[4-(2-pyridinylmethoxy)phenyl]-2H-pyran-2-one]
800 |  |  | O=c1oc(-c2ccccc2)cc(O)c1C(Sc1ccccc1)c1ccccc1 (racemic) [Example 31, 4-Hydroxy-6-phenyl-3-[phenyl(phenylthio)methyl]-2H-pyran-2-one]
60 |  |  | O=c1oc(-c2ccccc2)cc(O)c1C(CC1CC1)SCc1ccccc1 (racemic) [Example 119, 3-[2-Cyclopropyl-1-[(phenylmethyl)thio]ethyl]-4-hydroxy-6-phenyl-2H-pyran-2-one]
400 |  |  | O=c1oc(-c2cccc(Cl)c2)cc(O)c1SCCc1ccccc1 [Example 6, 6-(3-Chlorophenyl)-4-hydroxy-3-[(2-phenylethyl)thio]-2H-pyran-2-one]
700 |  |  | COc1ccc(-c2cc(O)c(SCc3ccccc3)c(=O)o2)cc1C [Example 46, 4-Hydroxy-6-(4-methoxy-3-methylphenyl)-3-[(phenylmethyl)thio]-2H-pyran-2-one]
500 |  |  | O=c1oc(-c2ccc(O)cc2)cc(O)c1SCCc1ccccc1 [Example 24, 4-Hydroxy-6-(4-hydroxyphenyl)-3-[(phenylethyl)thio]-2H-pyran-2-one]
